Assay [1] addresses T1, FAAH (Mus musculus, UniProt O08914).
T1 sequence (O08914 1-579): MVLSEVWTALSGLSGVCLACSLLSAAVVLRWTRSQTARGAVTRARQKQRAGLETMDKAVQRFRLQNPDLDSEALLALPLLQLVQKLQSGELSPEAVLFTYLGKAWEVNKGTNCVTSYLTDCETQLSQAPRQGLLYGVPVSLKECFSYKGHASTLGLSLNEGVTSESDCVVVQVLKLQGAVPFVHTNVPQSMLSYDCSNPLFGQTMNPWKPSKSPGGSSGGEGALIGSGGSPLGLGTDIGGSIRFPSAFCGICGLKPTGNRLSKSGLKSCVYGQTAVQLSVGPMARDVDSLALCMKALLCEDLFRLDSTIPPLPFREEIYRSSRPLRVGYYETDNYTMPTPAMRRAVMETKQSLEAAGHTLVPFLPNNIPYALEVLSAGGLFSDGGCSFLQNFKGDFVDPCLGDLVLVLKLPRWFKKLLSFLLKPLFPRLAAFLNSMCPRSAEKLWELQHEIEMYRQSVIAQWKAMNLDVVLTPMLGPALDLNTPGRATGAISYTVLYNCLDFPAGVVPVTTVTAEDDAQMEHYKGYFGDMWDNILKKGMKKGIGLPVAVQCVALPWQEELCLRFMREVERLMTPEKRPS
The assay can be described thus: In vitro competitive activity-based protein profiling, FAAH, mouse. Particulars: read-out: FAAH % inh. 1 μM (mouse).

Assay [2] has as its target T2, MAGL (Homo sapiens, UniProt Q99685).
T2 sequence (Q99685 1-303): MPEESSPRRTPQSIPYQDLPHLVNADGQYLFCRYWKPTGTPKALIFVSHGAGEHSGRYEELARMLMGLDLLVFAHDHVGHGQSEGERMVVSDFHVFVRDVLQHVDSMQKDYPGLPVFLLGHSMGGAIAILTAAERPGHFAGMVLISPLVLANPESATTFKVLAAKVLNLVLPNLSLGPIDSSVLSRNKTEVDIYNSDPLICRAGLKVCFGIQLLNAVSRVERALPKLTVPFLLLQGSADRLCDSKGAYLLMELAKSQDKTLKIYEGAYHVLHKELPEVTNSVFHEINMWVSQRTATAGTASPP
The assay can be described thus: In vitro competitive activity-based protein profiling, MAGL, human. The note with it: read-out: MAGL % inh. 1 μM (human).

For assay [3], the target named is T3, FAAH (Homo sapiens, UniProt O00519).
T3 sequence (O00519 1-579): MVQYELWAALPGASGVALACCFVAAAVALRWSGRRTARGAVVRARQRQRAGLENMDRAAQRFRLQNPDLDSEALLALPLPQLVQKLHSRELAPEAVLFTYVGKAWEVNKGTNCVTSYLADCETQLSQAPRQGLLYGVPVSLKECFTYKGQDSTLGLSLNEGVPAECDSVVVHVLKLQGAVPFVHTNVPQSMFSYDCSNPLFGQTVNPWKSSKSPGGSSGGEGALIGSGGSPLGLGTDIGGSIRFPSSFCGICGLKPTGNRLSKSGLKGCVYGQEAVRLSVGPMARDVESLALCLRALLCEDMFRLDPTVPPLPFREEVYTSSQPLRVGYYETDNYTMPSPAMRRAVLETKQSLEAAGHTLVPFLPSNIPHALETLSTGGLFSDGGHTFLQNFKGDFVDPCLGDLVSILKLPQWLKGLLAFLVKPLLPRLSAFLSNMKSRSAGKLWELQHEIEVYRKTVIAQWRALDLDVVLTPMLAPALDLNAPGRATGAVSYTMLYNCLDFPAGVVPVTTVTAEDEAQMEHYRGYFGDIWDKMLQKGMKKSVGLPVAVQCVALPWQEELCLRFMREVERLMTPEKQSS
Nature of the assay: In vitro competitive activity-based protein profiling, FAAH, human. The note with it: for inhibition at 1 µM: read-out: FAAH % inh. 1 μM (human).

Assay [4] concerns the target T4, MAGL (Mus musculus, UniProt O35678).
T4 sequence (O35678 1-303): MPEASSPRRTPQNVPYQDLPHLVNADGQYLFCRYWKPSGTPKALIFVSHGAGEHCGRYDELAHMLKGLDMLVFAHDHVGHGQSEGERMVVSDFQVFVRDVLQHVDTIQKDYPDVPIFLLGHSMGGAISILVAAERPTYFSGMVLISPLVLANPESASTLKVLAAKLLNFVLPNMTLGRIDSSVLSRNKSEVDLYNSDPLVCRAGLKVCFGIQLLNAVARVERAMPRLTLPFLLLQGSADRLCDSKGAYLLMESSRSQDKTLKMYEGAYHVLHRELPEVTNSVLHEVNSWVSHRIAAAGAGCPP
Nature of the assay: In vitro competitive activity-based protein profiling, MAGL, mouse. Particulars: read-out: MAGL % inh. 1 μM (mouse).

`C[C@@H]1CC[C@H](C)N1c1cc(C(F)(F)F)ccc1CN1CCN(C(=O)n2ccc(C(=O)O)n2)CC1` [Example 94, 1-(4-(2-((2R,5S)-2,5-dimethylpyrrolidin-1-yl)-4-(trifluoromethyl)benzyl)piperazine-1-carbonyl)-1H-pyrazole-3-carboxylic acid]: the inhibition at 1 µM was 0 to 25% at FAAH [1], > 75% on MAGL [2], 0 to 25% on FAAH [3] and > 75% on MAGL [4].
Consider `O=C(O)c1ccn(C(=O)N2CCN(Cc3ccc(C(F)(F)F)cc3N3CCN4CCC[C@H]4C3)CC2)n1` [Example 49, (S)-1-(4-(2-(hexahydropyrrolo [1,2-a]pyrazin-2(1H)-yl)-4-(trifluoromethyl)benzyl)piperazine-1-carbonyl)-1H-pyrazole-3-carboxylic acid], for which the inhibition at 1 µM on FAAH [1] is 0 to 25%; on MAGL [2], > 75%; on FAAH [3] it was 0 to 25%; at MAGL [4], > 75%.
For the compound `O=C(O)c1ccn(C(=O)N2CC3CN(Cc4cccc(-c5ccccc5)c4)CC3C2)n1` (stereo not shown) [Example 156, 1-(5-([1,1′-biphenyl]-3-ylmethyl)octahydropyrrolo[3,4-c]pyrrole-2-carbonyl)-1H-pyrazole-3-carboxylic acid], the inhibition at 1 µM on FAAH [1] was > 75%; on MAGL [2] it was > 75%; at FAAH [3] it was 0 to 25%; on MAGL [4], > 75%.
Take `O=C(O)c1ccn(C(=O)N2CCN(Cc3cccc(Oc4cnccn4)c3)CC2)n1` [Example 60]: the inhibition at 1 µM on FAAH [1] fell in the range of 0 to 25%; at MAGL [2], 25 to 50%; at FAAH [3] it was 0 to 25%; on MAGL [4] it was 0 to 25%.
With `Cc1cn(C(=O)N2CCN(Cc3cccc(Oc4ccc(Cl)cc4)c3)CC2)nc1C(=O)O` [Example 129, 1-(4-(3-(4-chlorophenoxy)benzyl)piperazine-1-carbonyl)-4-methyl-1H-pyrazole-3-carboxylic acid], the inhibition at 1 µM at FAAH [1], at MAGL [2], at FAAH [3] and at MAGL [4] was > 75% throughout. The compound also came in with an IC50 at FAAH [3] of 100 to 1000 nM.
As to `O=C(O)c1nn(C(=O)N2CCN(Cc3ccc(-c4cnc5ccccn45)cc3C(F)(F)F)CC2)cc1Cl` [Example 145, 4-chloro-1-(4-(4-(imidazo[1,2-a]pyridin-3-yl)-2-(trifluoromethyl)benzyl)piperazine-1-carbonyl)-1H-pyrazole-3-carboxylic acid], the inhibition at 1 µM is > 75% at FAAH [1], > 75% at MAGL [2], 50 to 75% on FAAH [3] and > 75% on MAGL [4].
Turning to `O=C(O)c1ccn(C(=O)N2CCC3(CCN(Cc4ccc(Oc5ccc(Cl)cc5)cc4)C3)CC2)n1` [Example 75, 1-(2-(4-(4-chlorophenoxy)benzyl)-2,8-diazaspiro[4.5]decane-8-carbonyl)-1H-pyrazole-3-carboxylic acid], the inhibition at 1 µM at FAAH [1] was 50 to 75%; at MAGL [2], > 75%; at FAAH [3] it was 0 to 25%; at MAGL [4] it was 50 to 75%.
Consider `O=C(O)c1ccn(C(=O)N2CCC3(CCN(Cc4ccc(N5CCCC5)c(Cl)c4)C3)CC2)n1` [Example 168, 1-(2-(3-chloro-4-(pyrrolidin-1-yl)benzyl)-2,8-diazaspiro[4.5]decane-8-carbonyl)-1H-pyrazole-3-carboxylic acid], for which the inhibition at 1 µM lay in the range of 0 to 25% on FAAH [1], 50 to 75% at MAGL [2], 0 to 25% at FAAH [3] and 0 to 25% at MAGL [4].
With `Cc1c(CN2CCC3(CCN(C(=O)n4ccc(C(=O)O)n4)CC3)C2)cccc1C(F)(F)F` [Example 71, 1-(2-(2-methyl-3-(trifluoromethyl)benzyl)-2,8-diazaspiro[4.5]decane-8-carbonyl)-1H-pyrazole-3-carboxylic acid], the inhibition at 1 µM was 0 to 25% on FAAH [1], > 75% at MAGL [2], 0 to 25% on FAAH [3] and > 75% at MAGL [4].
